Assay results as given in patent US20130122147A1, “METHODS FOR ENHANCING THE PALATABILITY OF COMESTIBLE COMPOSITIONS” (priority 2010, published 2013).

Tested on: dogs
Assay: Two-bowl choice palatability test of pet foods
Type: in vivo
Experimental: Palatability testing followed the industry standard protocol for assessing preference, i.e., the two-bowl choice test. The dogs were tested individually inside their kennels. The panels consisted of a mix of breeds, distributed as equally as possible. The dogs were at least 12 months of age and the sex distribution was as equal as possible within panels. A choice of two bowls each with the same amount food, the test and the control diets, was offered simultaneously. The maximum length of the time the products were offered to the dogs was 20 minutes. Water was available at all times via an automatic water system. Bowl assignment for the foods was always counterbalanced.
At the end of a test, food consumption for each pet food for each dog was determined by subtracting the amount of food remaining in the bowls from what was initially offered to the dogs. A dog's preference was determined based on which food was most consumed.
The experiment was repeated twice.

## CCCCCCCC/C=C\CCCCCCCC(=O)NCCO [OEA, N-oleoyl-ethanolamide]
Food of Table 9 (0.41% OEA in basal meal) vs control Ex 7
  Effect of OEA on palatability of the pet food (result in words): enhanced the palatability
Foods of Table 8 (0.066-0.566% OEA) vs control Ex 1
  Effect of OEA on palatability of the pet foods (result in words): enhanced the palatability
